Measured values: ChEMBL document CHEMBL1201862, “PubChem BioAssay data set” (2004)
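Exposure lasted 48 hours, with cells grown in 96-well plates and compounds tested at five concentrations. GI50 marks 50% less growth.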 Activity calls are given as the source filed them. No stated cut-off is given here; in the data, active = GI50 up to about 1.1 µM and inactive = higher.

Tests used:
Assay in all cases: NCI-60 cell line screen, 48 h
[1] = tested on: 786-0
[2] = tested on: A498
[3] = tested on: A549
[4] = tested on: ACHN
[5] = tested on: CAKI-1
[6] = tested on: CCRF-CEM
[7] = tested on: COLO 205
[8] = tested on: DLD-1
[9] = tested on: DMS-114
[10] = tested on: DMS-273
[11] = tested on: EKVX
[12] = tested on: HCT-116
[13] = tested on: HCT-15
[14] = tested on: HL-60
[15] = tested on: HOP-18
[16] = tested on: HOP-92
[17] = tested on: HT-29
[18] = tested on: IGROV-1
[19] = tested on: K562
[20] = tested on: KM-20L2
[21] = tested on: LOX IMVI
[22] = tested on: LXFL 529
[23] = tested on: M14
[24] = tested on: M19-MEL
[25] = tested on: MOLT-4
[26] = tested on: NCI-H23
[27] = tested on: NCI-H460
[28] = tested on: NCI-H522
[29] = tested on: OVCAR-8
[30] = tested on: RPMI-8226
[31] = tested on: RXF 393
[32] = tested on: RXF 631
[33] = tested on: SF-268
[34] = tested on: SF-295
[35] = tested on: SF-539
[36] = tested on: SK-MEL-28
[37] = tested on: SK-MEL-5
[38] = tested on: SK-OV-3
[39] = tested on: SN12C
[40] = tested on: SNB-19
[41] = tested on: SW-620
[42] = tested on: TK-10
[43] = tested on: U-251
[44] = tested on: UACC-62
[45] = tested on: UO-31
[46] = tested on: XF498
[47] = tested on: KM12
[48] = tested on: Malme-3M
[49] = tested on: NCI-H226
[50] = tested on: OVCAR-3
[51] = tested on: OVCAR-4
[52] = tested on: OVCAR-5
[53] = tested on: SK-MEL-2
[54] = tested on: SNB-75
[55] = tested on: SNB-78
[56] = tested on: SR
[57] = tested on: UACC-257
[58] = tested on: HCC 2998
[59] = tested on: HOP-62

## COc1ccc(/C=C/C(=O)c2c(-c3ccccc3)nn(C)c(=O)c2N2CCOCC2)cc1
[1]
  GI50: > 100 µM (inactive)
[2]
  GI50: > 100 µM (inactive)
[3]
  GI50: > 100 µM (inactive)
[4]
  GI50: > 100 µM (inactive)
[5]
  GI50: > 100 µM (inactive)
[6]
  GI50: 63 µM (inactive)
[7]
  GI50: > 100 µM (inactive)
[8]
  GI50: > 100 µM (inactive)
[9]
  GI50: > 100 µM (inactive)
[10]
  GI50: > 100 µM (inactive)
[11]
  GI50: > 100 µM (inactive)
[12]
  GI50: 54.2 µM (inactive)
[13]
  GI50: 65.9 µM
[14]
  GI50: 21.4 µM (inactive)
[15]
  GI50: > 100 µM (inactive)
[16]
  GI50: 6.92 µM (inactive)
[17]
  GI50: > 100 µM (inactive)
[18]
  GI50: > 100 µM (inactive)
[19]
  GI50: 40.5 µM (inactive)
[20]
  GI50: 60.3 µM (inactive)
[21]
  GI50: 68.1 µM (inactive)
[22]
  GI50: > 100 µM (inactive)
[23]
  GI50: > 100 µM (inactive)
[24]
  GI50: > 100 µM (inactive)
[25]
  GI50: 43.5 µM (inactive)
[26]
  GI50: > 100 µM (inactive)
[27]
  GI50: > 100 µM (inactive)
[28]
  GI50: > 100 µM (inactive)
[29]
  GI50: > 100 µM (inactive)
[30]
  GI50: 38.5 µM (inactive)
[31]
  GI50: > 100 µM (inactive)
[32]
  GI50: > 100 µM (inactive)
[33]
  GI50: > 100 µM (inactive)
[34]
  GI50: > 100 µM (inactive)
[35]
  GI50: > 100 µM (inactive)
[36]
  GI50: > 100 µM (inactive)
[37]
  GI50: 97.9 µM (inactive)
[38]
  GI50: > 100 µM (inactive)
[39]
  GI50: > 100 µM (inactive)
[40]
  GI50: > 100 µM (inactive)
[41]
  GI50: > 100 µM (inactive)
[42]
  GI50: > 100 µM (inactive)
[43]
  GI50: > 100 µM (inactive)
[44]
  GI50: > 100 µM (inactive)
[45]
  GI50: > 100 µM (inactive)
[46]
  GI50: 0.0601 µM (active)

## CCC(=O)OC[n+]1ccc2c(C)c3[nH]c4ccccc4c3c(C)c2c1
[1]
  GI50: 0.767 µM (active)
[2]
  GI50: 1.21 µM (inactive)
[3]
  GI50: 0.272 µM (active)
[4]
  GI50: 0.289 µM (active)
[5]
  GI50: 1.11 µM (active)
[6]
  GI50: 0.444 µM (active)
[7]
  GI50: 0.323 µM (active)
[8]
  GI50: 0.229 µM (active)
[9]
  GI50: 0.608 µM (active)
[12]
  GI50: 0.115 µM (active)
[14]
  GI50: 2.45 µM (inactive)
[15]
  GI50: < 0.01 µM (active)
[16]
  GI50: 0.107 µM (active)
[17]
  GI50: 0.328 µM (active)
[18]
  GI50: 0.142 µM (active)
[19]
  GI50: 0.618 µM (active)
[20]
  GI50: 0.504 µM (active)
[47]
  GI50: 0.483 µM (active)
[21]
  GI50: 0.337 µM (active)
[22]
  GI50: 0.413 µM (active)
[23]
  GI50: 1.08 µM (active)
[24]
  GI50: 0.681 µM (active)
[25]
  GI50: 0.0358 µM (active)
[48]
  GI50: 1.35 µM (inactive)
[49]
  GI50: 0.735 µM (active)
[26]
  GI50: 0.675 µM (active)
[27]
  GI50: 0.033 µM (active)
[50]
  GI50: 1.33 µM (inactive)
[51]
  GI50: 0.505 µM (active)
[52]
  GI50: 0.516 µM (active)
[29]
  GI50: 0.454 µM (active)
[30]
  GI50: 0.284 µM (active)
[31]
  GI50: 0.552 µM (active)
[32]
  GI50: 0.504 µM (active)
[33]
  GI50: 0.552 µM (active)
[34]
  GI50: 0.532 µM (active)
[35]
  GI50: 0.478 µM (active)
[36]
  GI50: 1.38 µM (inactive)
[53]
  GI50: 1.03 µM (active)
[37]
  GI50: 1.25 µM (inactive)
[39]
  GI50: 0.401 µM (active)
[40]
  GI50: 1.6 µM (inactive)
[54]
  GI50: 1.29 µM (inactive)
[55]
  GI50: 1.29 µM (inactive)
[56]
  GI50: 0.0423 µM (active)
[41]
  GI50: 0.173 µM (active)
[42]
  GI50: 1.36 µM (inactive)
[43]
  GI50: 0.397 µM (active)
[57]
  GI50: 1.37 µM (inactive)
[46]
  GI50: 1.88 µM (inactive)

## Cc1c(C2Cc3ccccc3N2C(=O)/C=C\C(=O)O)c2ccccc2n1C (configuration not stated)
[1]
  GI50: 18.4 µM (inactive)
[2]
  GI50: 18 µM (inactive)
[3]
  GI50: 33 µM (inactive)
[4]
  GI50: 38.6 µM (inactive)
[5]
  GI50: 25.8 µM (inactive)
[6]
  GI50: 30.8 µM (inactive)
[7]
  GI50: 17.1 µM (inactive)
[8]
  GI50: 35.9 µM (inactive)
[9]
  GI50: 18.7 µM (inactive)
[10]
  GI50: 34.8 µM (inactive)
[11]
  GI50: 30.2 µM (inactive)
[58]
  GI50: 21.4 µM (inactive)
[12]
  GI50: 27.5 µM (inactive)
[13]
  GI50: > 100 µM
[14]
  GI50: 18.1 µM (inactive)
[59]
  GI50: 27.6 µM (inactive)
[16]
  GI50: 17.7 µM (inactive)
[17]
  GI50: 35.3 µM (inactive)
[18]
  GI50: 24.4 µM (inactive)
[19]
  GI50: 36.4 µM (inactive)
[20]
  GI50: 25.1 µM (inactive)
[47]
  GI50: 18.4 µM (inactive)
[21]
  GI50: 16.9 µM (inactive)
[22]
  GI50: 17.3 µM (inactive)
[23]
  GI50: 17.8 µM (inactive)
[24]
  GI50: 19.7 µM (inactive)
[25]
  GI50: 27.7 µM (inactive)
[48]
  GI50: 15.9 µM (inactive)
[49]
  GI50: 20.2 µM (inactive)
[26]
  GI50: 25.9 µM (inactive)
[27]
  GI50: > 100 µM (inactive)
[28]
  GI50: 19.2 µM (inactive)
[50]
  GI50: 17.5 µM (inactive)
[51]
  GI50: 30.6 µM (inactive)
[52]
  GI50: 48.4 µM (inactive)
[29]
  GI50: 18.5 µM (inactive)
[31]
  GI50: 17.2 µM (inactive)
[32]
  GI50: > 100 µM (inactive)
[33]
  GI50: 18.7 µM (inactive)
[34]
  GI50: 24.4 µM (inactive)
[35]
  GI50: 21.6 µM (inactive)
[53]
  GI50: 17.7 µM (inactive)
[37]
  GI50: 18.2 µM (inactive)
[38]
  GI50: 23.4 µM (inactive)
[39]
  GI50: 19.5 µM (inactive)
[40]
  GI50: 17.4 µM (inactive)
[54]
  GI50: 21.8 µM (inactive)
[55]
  GI50: 35.5 µM (inactive)
[56]
  GI50: 30.1 µM (inactive)
[41]
  GI50: 20 µM (inactive)
[42]
  GI50: 22 µM (inactive)
[43]
  GI50: 20.1 µM (inactive)
[57]
  GI50: 16.2 µM (inactive)
[44]
  GI50: 16.9 µM (inactive)
[45]
  GI50: 20.4 µM (inactive)
[46]
  GI50: 17.3 µM (inactive)
